Measured values published in patent US20240043470A1, “MACROCYCLIC COMPOUNDS AS PROTEASOME INHIBITORS” (CORNELL UNIVERSITY, priority 2017, published 2024).

These molecules were tested against β5c of hu c-20S (Homo sapiens (Human), UniProt P20618+P28074) (assay: IC50 determination against β5c of human constitutive proteasome (suc-LLVY-AMC hydrolysis)). Details: 0.2 nM c-20S, 25 μM suc-LLVY-AMC.
Format: biochemical
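Note: IC50 obtained by fitting initial reaction velocities to a dose-dependent inhibition model, with SDS present as proteasome activator.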

In order of rising IC50:
1. Cn1cc(CNC(=O)[C@@H]2Cc3cccc(c3)Oc3cccc(c3)C[C@H](N3CCCCC3)C(=O)N[C@@H](CCc3ccccc3)C(=O)N2)cn1 [Compound 1-01, (5S,8S,11S)—N-((1-Methyl-1H-pyrazol-4-yl)methyl)-7,10-dioxo-8-phenethyl-11-(piperidin-1-yl)-2-oxa-6,9-diaza-1,3(1,3)-dibenzenacyclododecaphane-5-carboxamide]  0.402 µM
2. O=C1CCc2cccc(c2)Oc2cccc(c2)C[C@@H](C(=O)NCc2ccccc2F)NC(=O)[C@H](CCN2CCOCC2)N1 [Compound 1-91]  0.47 µM
3. CCCN(CCC)[C@H]1Cc2cccc(c2)Oc2cccc(c2)C[C@@H](C(=O)NCc2ccccc2)NC(=O)[C@H](CCc2ccccc2)NC1=O [Compound 1-09]  0.503 µM
4. COC(=O)N[C@H]1Cc2cccc(c2)Oc2cccc(c2)C[C@@H](C(=O)NCC2CC2)NC(=O)[C@H](CCc2ccccc2)NC1=O [Compound 1-06]  0.542 µM
5. CCN(CC)[C@H]1Cc2cccc(c2)Oc2cccc(c2)C[C@@H](C(=O)NCc2cnn(C)c2)NC(=O)[C@H](CCc2ccccc2)NC1=O [Compound 1-02]  0.55 µM
6. O=C(NC1CCCC1)[C@@H]1Cc2cccc(c2)Oc2cccc(c2)C[C@H](N2CCCC2)C(=O)N[C@@H](CCc2ccccc2)C(=O)N1 [Compound 1-18]  0.572 µM
7. CN1CCC(C(=O)N[C@H]2Cc3cccc(c3)Oc3cccc(c3)C[C@@H](C(=O)NCc3cnn(C)c3)NC(=O)[C@H](CCc3ccccc3)NC2=O)CC1 [Compound 1-03, (5S,8S,11S)—N-((1-Methyl-1H-pyrazol-4-yl)methyl)-11-(1-methylpiperidine-4-carboxamido)-7,10-dioxo-8-phenethyl-2-oxa-6,9-diaza-1,3(1,3)-dibenzenacyclododecaphane-5-carboxamide]  1 µM
8. CCC(=O)N[C@H]1Cc2cccc(c2)Oc2cccc(c2)C[C@@H](C(=O)NCC2CC2)NC(=O)[C@H](CCc2ccccc2)NC1=O [Compound 1-07]  1.12 µM
9. CCNC(=O)[C@@H]1Cc2cccc(c2)Oc2cccc(c2)C[C@H](N(CC)CC)C(=O)N[C@@H](CCc2ccccc2)C(=O)N1 [Compound 1-27]  1.14 µM
10. CC1CCCN1[C@H]1Cc2cccc(c2)Oc2cccc(c2)C[C@@H](C(=O)NCc2ccccc2)NC(=O)[C@H](CCc2ccccc2)NC1=O (stereo partly shown) [Compound 1-10]  1.3 µM
11. CCN(CC)[C@H]1Cc2cccc(c2)Oc2cccc(c2)C[C@@H](C(=O)NC(C)C)NC(=O)[C@H](CCc2ccccc2)NC1=O [Compound 1-25]  1.63 µM
12. CS(=O)(=O)N[C@H]1Cc2cccc(c2)Oc2cccc(c2)C[C@@H](C(=O)NCC2CC2)NC(=O)[C@H](CCc2ccccc2)NC1=O [Compound 1-08]  1.78 µM
13. O=C(CO)N[C@H]1Cc2cccc(c2)Oc2cccc(c2)C[C@@H](C(=O)NCc2ccccc2)NC(=O)[C@H](CCc2ccccc2)NC1=O [Compound 1-11]  1.93 µM
14. CCN(CC)[C@H]1Cc2cccc(c2)Oc2cccc(c2)C[C@@H](C(=O)NCC(C)C)NC(=O)[C@H](CCc2ccccc2)NC1=O [Compound 1-29]  2.2 µM
15. COCCC(=O)N[C@H]1Cc2cccc(c2)Oc2cccc(c2)C[C@@H](C(=O)NCc2cccnc2)NC(=O)[C@H](CCc2ccccc2)NC1=O [Compound 1-33]  2.25 µM
16. CCNC(=O)[C@@H]1Cc2cccc(c2)Oc2cccc(c2)C[C@H](N2CCCCC2)C(=O)N[C@@H](CCc2ccccc2)C(=O)N1 [Compound 1-28]  2.47 µM
17. CCC(=O)N[C@H]1Cc2cccc(c2)Oc2cccc(c2)C[C@@H](C(=O)NC2CCCC2)NC(=O)[C@H](CCc2ccccc2)NC1=O [Compound 1-19]  2.8 µM
18. COCCNC(=O)[C@@H]1Cc2cccc(c2)Oc2cccc(c2)C[C@H](NC(=O)c2cccnc2)C(=O)N[C@@H](CCc2ccccc2)C(=O)N1 [Compound 1-34]  2.85 µM
19. CS(=O)(=O)N[C@H]1Cc2cccc(c2)Oc2cccc(c2)C[C@@H](C(N)=O)NC(=O)[C@H](CCc2ccccc2)NC1=O [Compound 1-35]  3 µM
20. CCN(CC)C(=O)[C@@H]1Cc2cccc(c2)Oc2cccc(c2)C[C@H](NC(=O)c2ccncc2)C(=O)N[C@@H](CCc2ccccc2)C(=O)N1 [Compound 1-36]  3.04 µM
21. O=C(N[C@H]1Cc2cccc(c2)Oc2cccc(c2)C[C@@H](C(=O)NCc2ccccc2)NC(=O)[C@H](CCc2ccccc2)NC1=O)c1ccccn1 [Compound 1-12]  3.2 µM
22. O=C(CO)N[C@H]1Cc2cccc(c2)Oc2cccc(c2)C[C@@H](C(=O)NC2CCCC2)NC(=O)[C@H](CCc2ccccc2)NC1=O [Compound 1-20]  3.25 µM
23. CCCN(CCC)[C@H]1Cc2cccc(c2)Oc2cccc(c2)C[C@@H](C(=O)NC2CCCC2)NC(=O)[C@H](CCc2ccccc2)NC1=O [Compound 1-21]  3.4 µM
24. Cn1cnc(C(=O)N[C@H]2Cc3cccc(c3)Oc3cccc(c3)C[C@@H](C(=O)NCc3ccccc3)NC(=O)[C@H](CCc3ccccc3)NC2=O)c1 [Compound 1-13]  3.52 µM
25. CCC(=O)N[C@H]1Cc2cccc(c2)Oc2cccc(c2)C[C@@H](C(=O)NCc2ccccc2)NC(=O)[C@H](CCc2ccccc2)NC1=O [Compound 1-14]  4.01 µM
26. CCC(=O)N[C@H]1Cc2cccc(c2)Oc2cccc(c2)C[C@@H](C(=O)NCC(C)C)NC(=O)[C@H](CCc2ccccc2)NC1=O [Compound 1-30]  4.21 µM
27. Cc1nn(C)cc1CNC(=O)[C@@H]1Cc2cccc(c2)Oc2cccc(c2)C[C@H](NS(C)(=O)=O)C(=O)N[C@@H](CCc2ccccc2)C(=O)N1 [Compound 1-38]  4.29 µM
28. CN(C)CCC(=O)N[C@H]1Cc2cccc(c2)Oc2cccc(c2)C[C@@H](C(=O)NCC2CCCCN2C)NC(=O)[C@H](CCc2ccccc2)NC1=O (stereo partly shown) [Compound 1-39]  4.57 µM
29. CC(C)CNC(=O)[C@@H]1Cc2cccc(c2)Oc2cccc(c2)C[C@H](NC(=O)c2ccccc2)C(=O)N[C@@H](CCc2ccccc2)C(=O)N1 [Compound 1-31]  5 µM
30. O=C(N[C@H]1Cc2cccc(c2)Oc2cccc(c2)C[C@@H](C(=O)NCCC(F)(F)F)NC(=O)[C@H](CCc2ccccc2)NC1=O)c1ccccc1 [Compound 1-41]  5.7 µM
31. CCC(=O)N[C@H]1Cc2cccc(c2)Oc2cccc(c2)C[C@@H](c2nc3ccccc3o2)NC(=O)[C@H](CCc2ccccc2)NC1=O [Compound 1-42]  5.93 µM
32. O=C(N[C@H]1Cc2cccc(c2)Oc2cccc(c2)C[C@@H](C(=O)NC2CCCC2)NC(=O)[C@H](CCc2ccccc2)NC1=O)c1ccccc1 [Compound 1-23]  6.21 µM
33. CC(C)NC(=O)[C@@H]1Cc2cccc(c2)Oc2cccc(c2)C[C@H](NC(=O)c2ccccc2)C(=O)N[C@@H](CCc2ccccc2)C(=O)N1 [Compound 1-26]  6.93 µM
34. O=C(N[C@H]1Cc2cccc(c2)Oc2cccc(c2)C[C@@H](C(=O)N2CCCC2)NC(=O)[C@H](CCc2ccccc2)NC1=O)C1COC1 [Compound 1-44]  7.52 µM
35. COCCC(=O)N[C@H]1Cc2cccc(c2)Oc2cccc(c2)C[C@@H](C(=O)NCCC(F)(F)F)NC(=O)[C@H](CCc2ccccc2)NC1=O [Compound 1-45]  7.7 µM
36. CC(C)CNC(=O)[C@@H]1Cc2cccc(c2)Oc2cccc(c2)C[C@H](NC(=O)c2cn(C)cn2)C(=O)N[C@@H](CCc2ccccc2)C(=O)N1 [Compound 1-32]  8.86 µM
37. CS(=O)(=O)CCNC(=O)[C@@H]1Cc2cccc(c2)Oc2cccc(c2)C[C@H](NC(=O)CO)C(=O)N[C@@H](CCc2ccccc2)C(=O)N1 [Compound 1-46]  9.5 µM
38. COCC(=O)N[C@H]1Cc2cccc(c2)Oc2cccc(c2)C[C@@H](C(=O)NCC2CCCO2)NC(=O)[C@H](CCc2ccccc2)NC1=O (stereo partly shown) [Compound 1-47]  9.7 µM
39. CCC(=O)N[C@H]1Cc2cccc(c2)Oc2cccc(c2)C[C@@H](C(=O)NCc2ccccn2)NC(=O)[C@H](CCc2ccccc2)NC1=O [Compound 1-48]  10.2 µM
40. O=C(N[C@H]1Cc2cccc(c2)Oc2cccc(c2)C[C@@H](C(=O)NCC2CCOCC2)NC(=O)[C@H](CCc2ccccc2)NC1=O)c1cccnn1 [Compound 1-49]  11.9 µM
41. O=C(NCC1CC1)[C@@H]1CCCCOc2cccc(c2)C[C@H](N2CCCC2=O)C(=O)N[C@@H](CCN2CCOCC2)C(=O)N1 [Compound 3-17, (7S,10S,13S)—N-(Cyclopropylmethyl)-10-(2-morpholinoethyl)-9,12-dioxo-13-(2-oxopyrrolidin-1-yl)-2-oxa-8,11-diaza-1(1,3)-benzenacyclotetradecaphane-7-carboxamide]  17.9 µM
42. O=C1CCc2cccc(c2)OCCCC[C@@H](C(=O)NC2CCCC2)NC(=O)[C@H](CCN2CCOCC2)N1 [Compound 3-25, (6S,9S)—N-Cyclopentyl-9-(2-morpholinoethyl)-8,11-dioxo-2-oxa-7,10-diaza-1(1,3)-benzenacyclotridecaphane-6-carboxamide]  24.1 µM
43. CN1C(=O)[C@H](CCc2ccccc2)NC(=O)[C@@H](N2CCCC2=O)Cc2cccc(c2)OCCCC[C@H]1C(=O)NCC(F)(F)F [Compound 3-33]  25.8 µM
44. CC1(CNC(=O)[C@@H]2CCCCOc3cccc(c3)CCC(=O)N[C@@H](CCN3CCOCC3)C(=O)N2)CC1 [Compound 3-27]  34.6 µM
45. CCN(CC)[C@H]1Cc2cccc(c2)Oc2cccc(c2)C[C@@H](C(=O)NC2CCCC2)NC(=O)[C@H](CCc2ccccc2)NC1=O [Compound 1-22]  41.6 µM
46. O=C(NCC(F)(F)F)[C@@H]1CCCCOc2cccc(c2)C[C@H](N2CCCS2(=O)=O)C(=O)N[C@@H](CCN2CCOCC2)C(=O)N1 [Compound 3-19]  45 µM
47. O=C(NC[C@H]1CCCO1)[C@@H]1CCCCOc2cccc(c2)C[C@H](N2CCCC2=O)C(=O)N[C@@H](CCc2ccc(F)cc2)C(=O)N1 [Compound 3-30]  85.3 µM
48. O=C(N[C@H]1Cc2cccc(c2)Oc2cccc(c2)C[C@@H](C(=O)NCc2ccccc2)NC(=O)[C@H](CCc2ccccc2)NC1=O)c1ccccc1 [Compound 1-15]  100 µM
49. CCN[C@H]1Cc2cccc(c2)Oc2cccc(c2)C[C@@H](C(=O)NC2CCCC2)NC(=O)[C@H](CCc2ccccc2)NC1=O [Compound 1-24, (5S,8S,11S)—N-Cyclopentyl-11-(methylamino)-7,10-dioxo-8-phenethyl-2-oxa-6,9-diaza-1,3(1,3)-dibenzenacyclododecaphane-5-carboxamide]  100 µM
